Assay results taken from patent US9023811B2, “Method for treating a cardiovascular disease, hypercholesterolemia or hypertension or improving serum cholesterol levels by administering broccoli with a high level of glusosinolates” (Plant Bioscience Limited, priority 2009, dated 2015).
Where two headings read alike, the source gives them in different places.

What was measured:
[1] = target: T1, bovine insulin (Bos taurus, UniProt P01317); assay: Incubation of peptides with isothiocyanates, LC-MS/MS; format: binding; conditions: PBS pH 7.4 at 37° C., 0.5 to 24 hours
T1 construct: m/z 325.2 corresponds to Phe-SF, the N-terminal amino acid of insulin B chain; m/z 235.0 corresponds to Gly-SF, the N-terminal amino acid of insulin A chain; purchased Sigma-Aldrich
T1 sequence (P01317 25-54 limits assumed): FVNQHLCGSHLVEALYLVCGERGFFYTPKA
T1 sequence (P01317 85-105 limits assumed): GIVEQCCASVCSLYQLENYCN
Protocol: (§1) Incubations of SF or IB with bovine insulin (P01308, Sigma-Aldrich), recombinant human epidermal growth factor (EGF, P01133, R&D Systems, http://www.rndsystems.com/) and recombinant human transforming growth factor beta 1 (TGFβ1, P01137, R&D Systems) were performed in sodium phosphate-buffered saline solution (pH 7.4) or human blood plasma at 37° C. for 0.5-24 h. Plasma was pre-treated by ultrafiltration to remove high molecular weight proteins (Microcon Ultracel YM-30 filter, MWCO 30,000). Samples were either analyzed directly by LC-MS/MS or by LC-MS/MS analysis of tryptic digests of gel electrophoresis bands.
(§2) The LC system used was a Shimadzu series LOAD VP (Shimadzu). The column was an ACE 300 C18, 150×2.1 mm (5 μm particle size) used at 40° C. Mobile phase A was 0.1% formic acid in water, mobile phase B, 0.1% formic acid in acetonitrile and the flow rate was 0.25 ml/min. A linear gradient was used from 25% B to 35% B over 0 to 5 min, then a further gradient from 35% B to 99% B over 6 min followed by 99% B for 4 min. The column was re-equilibrated for a total of 3 min. The injection volume was between 5-20 μl. […] The peak-width was set on Q1 and Q3 at 1.0 Th (measured at half height) for all MS and MS/MS experiments. […]

[2] = target: T2, recombinant human epidermal growth factor (EGF) (Homo sapiens, UniProt P01133); assay: as above; format: binding; conditions: PBS pH 7.4 at 37° C., 0.5 to 24 hours
T2 construct: addition of SF to the N-terminal asparagines residue (m/z 309) of EGF; purchased R&D Systems
T2 sequence (P01133 971-1023 limits assumed): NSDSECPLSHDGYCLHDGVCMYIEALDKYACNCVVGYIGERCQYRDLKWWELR
Protocol: as §1, §2

[3] = tested on: TGFβ1/Smad mediated transcription
Protocol: Cells were seeded into complete growth medium in a six-well tissue culture dish for 24 h, after which the medium was replaced with low serum medium (0.5% FCS) containing one of three treatments: (1) TGFβ1 (to achieve a final concentration of 2 ng ml^−1) in PBS buffer, (2) TGFβ1^+10 mM DTT in PBS buffer (3) TGFβ1^+2 μM SF in PBS buffer. To simulate SF pharmacokinetics, all test samples were incubated at 37° C. for 30 minutes prior to dialysis, performed in PBS buffer for 4 hours using Slide-A-Lyzer Dialysis Cassettes MWCO 3.5K (PIERCE). Dialysis reduced SF concentration to 34 nM. As additional controls, cells were treated with PBS without TGFβ1 and PBS with SF (34 nM). The luciferase activity was determined 16 h following treatment using the Luciferase Reporter Gene assay (Roche Applied Science) in a Perkin Elmer Wallac Victor 2 1420 multilabel counter plate reader (Perkin Elmer). Briefly, cells were washed twice with PBS and lysed in cell lysis buffer supplied with the assay. Chemiluminescence was immediately quantified following the addition of luciferase assay substrate. Luciferase values were normalized to protein concentration quantified using the BCA assay (Sigma-Aldrich). The experiment was repeated four times, with three replicates of each treatment per experiment. Statistical analysis was performed using 1-way ANOVA with the statistical software, R [24].

[4] = tested on: pAKT in PC-3 cells
Protocol: BPH-1 or PC-3 cells were cultured in 10 cm cell culture dishes or 6-well culture plates until they reached 80% confluency and were lifter using TE buffer (10 mM Tris/HCl, 1 mM EDTA, pH8). After 24 h treatment with SF cells were washed three times with cold PBS and treated with RIPA buffer for 2 min on ice, followed by centrifugation at 13 000 g at 4° C. for 10 min and the supernatant collected for western blotting. Protein was separated on NuPage 10% polyacrylamide gels by electrophoresis and transferred to nitrocellulose membranes. Membranes were probed with primary antibodies obtained from Cell Signalling© at a dilution of 1:1000: Phospho-Akt (Ser^473) Rabbit mAb (#4060 L) and AKT (pan) Rabbit rnAb (#4685). GAPDH was used as a loading control for all blots. Proteins were visualised with SuperSignal West Chemiluminescence kit.

[5] = target: T3, recombinant human transforming growth factor beta 1 (TGFβ1) (Homo sapiens, UniProt P01137); assay: Incubation of peptides with isothiocyanates, LC-MS/MS; format: binding; conditions: PBS pH 7.4 at 37° C., 0.5 to 24 hours
T3 construct: TGFβ1 was robustly identified in bands of 25 kDa corresponding to the active dimer; The N-terminal peptide […] was identified; purchased R&D Systems
T3 sequence (P01137 279-390 limits assumed): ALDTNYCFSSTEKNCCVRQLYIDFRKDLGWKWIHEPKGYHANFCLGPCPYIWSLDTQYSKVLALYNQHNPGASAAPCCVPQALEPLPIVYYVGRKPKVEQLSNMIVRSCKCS
Protocol: as §1, §2

[6] = tested on: EGF receptor phosphorylation in BPH cells; conditions: EGF pre-incubated with ITC, compared to EGF alone

Compound	conjugate of peptide and ITC (insulin) [1]	conjugate of peptide and ITC (EGF) [2]	Smad-mediated transcription (luciferase activity) ([3]; TGFβ1 pre-incubated with SF (2 μM) for 30 minutes followed by dialysis, compared to TGFβ1 alone)	Smad-mediated transcription (luciferase activity) ([3]; residual SF (34 nM) alone, without TGFβ1)	pAKT expression ([4]; PC-3 cells + FCS, 2 μM SF, one hour)	pAKT expression ([4]; PC-3 cells + FCS, 10 μM SF)	pAKT expression ([4]; PC-3 cells in culture medium without FCS)	pAKT expression ([4]; PC-3 cells, 0.5 μM SF (data not shown))	conjugate of peptide and ITC (TGFβ1) [5]	amount of phosphorylated EGF receptor [6]
C[S+]([O-])CCCCN=C=S (stereo not shown) [SF, sulforaphane]	formation of a covalently bound conjugate	formation of a covalently bound conjugate	increase in Smad-mediated transcription	did not result in enhanced transcription	suppresses pAKT	variable response	no further inhibition	suppression	formation of a covalently bound conjugate	reduces the amount of phosphorylated receptor
C[S+]([O-])CCCN=C=S (stereo not shown) [IB, iberin]	formation of a covalently bound conjugate	formation of a covalently bound conjugate							formation of a covalently bound conjugate	
